# From PMC9870890 (Nature Communications, 2023)
# Read-outs that look alike come from different tables or passages of the source.
# Assays:
# M2R [1] = molecular target: T1, M2R (Homo sapiens, UniProt P08172); experiment: cell-based; conditions: for Emax: HEK-293T
# T1 sequence (P08172 1-466): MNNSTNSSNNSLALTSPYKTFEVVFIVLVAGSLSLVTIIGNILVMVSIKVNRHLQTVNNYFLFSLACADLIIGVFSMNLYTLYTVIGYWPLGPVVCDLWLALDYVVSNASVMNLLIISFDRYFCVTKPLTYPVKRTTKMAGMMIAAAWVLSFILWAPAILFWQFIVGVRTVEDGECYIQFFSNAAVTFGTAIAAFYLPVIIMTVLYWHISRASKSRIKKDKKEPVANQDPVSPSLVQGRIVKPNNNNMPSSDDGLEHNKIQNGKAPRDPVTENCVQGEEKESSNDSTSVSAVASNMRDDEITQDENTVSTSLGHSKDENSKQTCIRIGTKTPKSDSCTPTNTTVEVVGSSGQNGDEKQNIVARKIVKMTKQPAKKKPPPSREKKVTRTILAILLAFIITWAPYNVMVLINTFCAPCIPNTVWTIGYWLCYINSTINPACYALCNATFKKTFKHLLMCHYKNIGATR
# Procedure: Measurement of G-protein mediated activation of M2R was performed applying the IP-One HTRF® accumulation assay (Cisbio, Codolet, France) as previously described protocols[29],[73]. In brief, HEK 293T cells were co-transfected with the cDNA coding for M2R and the hybrid G-protein Gαqi (Gαq protein with the last five amino acids at the C-terminus replaced by the corresponding sequence of Gαi; gift from The J. David Gladstone Institutes, San Francisco, CA) and transferred into 384-well micro plates. […] Accumulation of second messenger was stopped by addition of the detection reagents (IP1-d2 conjugate and Anti-IP1cryptate TB conjugate). […] Normalized concentration-response curves from four to eight experiments each done in duplicates were analyzed using the algorithms for four parameter non-linear regression implemented in PRISM 8.0 (GraphPad Software, USA) to derive EC50 and Emax values.
# M2R [2] = molecular target: T1, M2R; experiment: cell-based; set-up: expressed in transfected cells; host or cells: HEK 293T; conditions: for Emax: HEK-293T
# Procedure: Determination of β-arrestin-2 recruitment was performed applying the PathHunter assay (DiscoverX, Birmingham, U.K.) which is based on fragment complementation of β-galactosidase as described. In detail, HEK293T cells were transfected with the flag-tagged M2 receptor carrying the PKA fragment for enzyme complementation and transferred into 384-well micro plates. […] Determination of chemoluminescence was done with a Clariostar plate reader (BMG, Ortenberg, Germany). […] Normalized curves from three to five individual experiments each done in duplicate were analyzed by non-linear regression applying the algorithms in Prism 8.0 (GraphPad, San Diego, CA) to get dose-response curves representing average EC50 and Emax value.
smiles,measurement,setting,value
"C[N+](C)(C)CC#CCOC1=NOCC1 [Ixo, iperoxo]",EC50,M2R [1],0.31 ± 0.043 nM
same,Emax,"M2R [1]; read-out: Emax in % of acetylcholin, IP accumulation by iperoxo, agonist (absence of LY2119620)",115%
same,Emax,"M2R [1]; read-out: Emax in % of acetylcholin, IP accumulation by iperoxo, agonist + 0.1 µM LY",111%
same,Emax,"M2R [1]; read-out: Emax in % of acetylcholin, IP accumulation by iperoxo, agonist + 1 µM LY",105%
same,Emax,"M2R [1]; read-out: Emax in % of acetylcholin, IP accumulation by iperoxo, agonist + 3 µM LY",104%
same,Emax,"M2R [1]; read-out: Emax in % of acetylcholin, IP accumulation by iperoxo, agonist + 10 µM LY",104%
same,Emax,"M2R [1]; read-out: Emax in % of acetylcholin, IP accumulation by iperoxo, agonist + 100 µM LY",102%
same,Emax,"M2R [1]; read-out: IP accumulation as % max effect of acetylcholin, iperoxo log [M] 3-8, 1µM LY2119620",103%
same,Emax,"M2R [1]; read-out: IP accumulation as % max effect of acetylcholin, iperoxo log [M] 3-8, 3µM LY2119620",102%
same,Emax,"M2R [1]; read-out: IP accumulation as % max effect of acetylcholin, iperoxo log [M] 3-8, 10µM LY2119620",99.3%
same,Emax,"M2R [1]; read-out: IP accumulation as % max effect of acetylcholin, iperoxo log [M] 3-8, 100µM LY2119620",98.3%
same,Emax,"M2R [1]; read-out: IP accumulation as % max effect of acetylcholin, iperoxo log [M] 3-8, no LY2119620",111%
same,Emax,"M2R [1]; read-out: IP accumulation as % max effect of acetylcholin, iperoxo log [M] 3-9, 0.1µM LY2119620",122%
same,Emax,"M2R [1]; read-out: IP accumulation as % max effect of acetylcholin, iperoxo log [M] 3-9, 1µM LY2119620",104%
same,Emax,"M2R [1]; read-out: IP accumulation as % max effect of acetylcholin, iperoxo log [M] 3-9, 3µM LY2119620",106%
same,Emax,"M2R [1]; read-out: IP accumulation as % max effect of acetylcholin, iperoxo log [M] 3-9, 10µM LY2119620",98.3%
same,Emax,"M2R [1]; read-out: IP accumulation as % max effect of acetylcholin, iperoxo log [M] 3-9, 30µM LY2119620",87.5%
same,Emax,"M2R [1]; read-out: IP accumulation as % max effect of acetylcholin, iperoxo log [M] 3-9, 100µM LY2119620",106%
same,Emax,"M2R [1]; read-out: IP accumulation as % max effect of acetylcholin, iperoxo log [M] 3-9, no LY2119620",113%
same,Emax,"M2R [1]; read-out: IP accumulation as % max effect of acetylcholin, iperoxo log [M] 3-10, 0.1µM LY2119620",85.3%
same,Emax,"M2R [1]; read-out: IP accumulation as % max effect of acetylcholin, iperoxo log [M] 3-10, 1µM LY2119620",100%
same,Emax,"M2R [1]; read-out: IP accumulation as % max effect of acetylcholin, iperoxo log [M] 3-10, 3µM LY2119620",104%
same,Emax,"M2R [1]; read-out: IP accumulation as % max effect of acetylcholin, iperoxo log [M] 3-10, 10µM LY2119620",106%
same,Emax,"M2R [1]; read-out: IP accumulation as % max effect of acetylcholin, iperoxo log [M] 3-10, 100µM LY2119620",104%
same,Emax,"M2R [1]; read-out: IP accumulation as % max effect of acetylcholin, iperoxo log [M] 3-11, 0.1µM LY2119620",26.4%
same,Emax,"M2R [1]; read-out: IP accumulation as % max effect of acetylcholin, iperoxo log [M] 3-11, 10µM LY2119620",94.8%
same,Emax,"M2R [1]; read-out: IP accumulation as % max effect of acetylcholin, iperoxo log [M] 3-12, 0.1µM LY2119620",12.3%
same,Emax,"M2R [1]; read-out: IP accumulation as % max effect of acetylcholin, iperoxo log [M] 3-12, 1µM LY2119620",35.6%
same,Emax,"M2R [1]; read-out: IP accumulation as % max effect of acetylcholin, iperoxo log [M] 3-12, 100µM LY2119620",80.3%
same,Emax,"M2R [1]; read-out: IP accumulation as % max effect of acetylcholin, iperoxo log [M] -6, 0.1µM LY2119620",108%
same,Emax,"M2R [1]; read-out: IP accumulation as % max effect of acetylcholin, iperoxo log [M] -6, 1µM LY2119620",101%
same,Emax,"M2R [1]; read-out: IP accumulation as % max effect of acetylcholin, iperoxo log [M] -6, 3µM LY2119620",101%
same,Emax,"M2R [1]; read-out: IP accumulation as % max effect of acetylcholin, iperoxo log [M] -6, 10µM LY2119620",104%
same,Emax,"M2R [1]; read-out: IP accumulation as % max effect of acetylcholin, iperoxo log [M] -6, 30µM LY2119620",97%
same,Emax,"M2R [1]; read-out: IP accumulation as % max effect of acetylcholin, iperoxo log [M] -6, 100µM LY2119620",104%
same,Emax,"M2R [1]; read-out: IP accumulation as % max effect of acetylcholin, iperoxo log [M] -6, no LY2119620",102%
same,Emax,"M2R [1]; read-out: IP accumulation as % max effect of acetylcholin, iperoxo log [M] -7, 0.1µM LY2119620",104%
same,Emax,"M2R [1]; read-out: IP accumulation as % max effect of acetylcholin, iperoxo log [M] -7, 1µM LY2119620",104%
same,Emax,"M2R [1]; read-out: IP accumulation as % max effect of acetylcholin, iperoxo log [M] -7, 3µM LY2119620",98.3%
same,Emax,"M2R [1]; read-out: IP accumulation as % max effect of acetylcholin, iperoxo log [M] -7, 10µM LY2119620",101%
same,Emax,"M2R [1]; read-out: IP accumulation as % max effect of acetylcholin, iperoxo log [M] -7, 100µM LY2119620",102%
same,Emax,"M2R [1]; read-out: IP accumulation as % max effect of acetylcholin, iperoxo log [M] -7, no LY2119620",107%
same,Emax,"M2R [1]; read-out: IP accumulation as % max effect of acetylcholin, iperoxo log [M] -8, 0.1µM LY2119620",113%
same,Emax,"M2R [1]; read-out: IP accumulation as % max effect of acetylcholin, iperoxo log [M] -8, 3µM LY2119620",106%
same,Emax,"M2R [1]; read-out: IP accumulation as % max effect of acetylcholin, iperoxo log [M] -8, 10µM LY2119620",102%
same,Emax,"M2R [1]; read-out: IP accumulation as % max effect of acetylcholin, iperoxo log [M] -8, no LY2119620",112%
same,Emax,"M2R [1]; read-out: IP accumulation as % max effect of acetylcholin, iperoxo log [M] -9, 1µM LY2119620",108%
same,Emax,"M2R [1]; read-out: IP accumulation as % max effect of acetylcholin, iperoxo log [M] -9, 10µM LY2119620",106%
same,Emax,"M2R [1]; read-out: IP accumulation as % max effect of acetylcholin, iperoxo log [M] -9, 100µM LY2119620",108%
same,Emax,"M2R [1]; read-out: IP accumulation as % max effect of acetylcholin, iperoxo log [M] -10, 3µM LY2119620",100%
same,Emax,"M2R [1]; read-out: IP accumulation as % max effect of acetylcholin, iperoxo log [M] -10, 10µM LY2119620",101%
same,Emax,"M2R [1]; read-out: IP accumulation as % max effect of acetylcholin, iperoxo log [M] -12, 100µM LY2119620",94.6%
same,Emax,"M2R [1]; read-out: IP accumulation as % max effect of acetylcholin, iperoxo log [M] -14, 0.1µM LY2119620",18.7%
same,Emax,"M2R [1]; read-out: IP accumulation as % max effect of acetylcholin, iperoxo log [M] -14, 30µM LY2119620",79.3%
same,Emax,"M2R [1]; read-out: IP accumulation as % max effect of acetylcholin, iperoxo log [M] -14, 100µM LY2119620",78.3%
same,EC50,M2R [2],0.35 ± 0.08 nM
same,Emax,"M2R [2]; read-out: Emax in % of acetylcholin, arrestin recruitment by iperoxo, agonist + 0.1 µM LY",168%
same,Emax,"M2R [2]; read-out: Emax in % of acetylcholin, arrestin recruitment by iperoxo, agonist + 3 µM LY",172%
same,Emax,"M2R [2]; read-out: Emax in % of acetylcholin, arrestin recruitment by iperoxo, agonist + 30 µM LY",170%
same,Emax,"M2R [2]; read-out: Emax in % of acetylcholin, arrestin recruitment by iperoxo, agonist + 100 µM LY",170%
same,Emax,"M2R [2]; read-out: arrestin recruitment as % max effect of acetylcholin, iperoxo log [M] 3-6",135%
same,Emax,"M2R [2]; read-out: arrestin recruitment as % max effect of acetylcholin, iperoxo log [M] 3-7",142%
same,Emax,"M2R [2]; read-out: arrestin recruitment as % max effect of acetylcholin, iperoxo log [M] 3-8",138%
same,Emax,"M2R [2]; read-out: arrestin recruitment as % max effect of acetylcholin, iperoxo log [M] 3-8 + 1µM LY2119620",150%
same,Emax,"M2R [2]; read-out: arrestin recruitment as % max effect of acetylcholin, iperoxo log [M] 3-8 + 10µM LY2119620",154%
same,Emax,"M2R [2]; read-out: arrestin recruitment as % max effect of acetylcholin, iperoxo log [M] 3-8 + 30µM LY2119620",168%
